Values joined by “and” are separate entries in the source; they are usually repeats but may differ in a detail not shown here. Identical values can stand only once. Inconclusive results are not listed.
Test system: BDF1 mice, s.c. Lewis lung carcinoma, T/C %
Assay: NCI In Vivo Anticancer Drug Screen. Data for tumor model Lewis Lung Carcinoma (subcutaneous) in B6D2F1 (BDF1) mice
How it was run: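 Readout: survival or tumor size, expressed as treated (T) over vehicle control (C). Transplantable tumor implanted in mice; compound given to the treated group.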

[1] = endpoint: mean tumor weight, dose: 100.0 mg/kg/injection, schedule: Q01DX011 (ip), vehicle: carboxymethylcellulose (CMC), higher = larger tumour

In the case of `CC(C)=CC1C(C(=O)OCc2ccc(C)cc2C)C1(C)C` (centres undefined), the T/C (endpoint: median survival time, dose: 12.5 mg/kg/injection, schedule: Q01DX009 (ip), vehicle: saline with Tween-80, higher = longer survival) is reported as 93 % of control, the T/C (endpoint: median survival time, dose: 25.0 mg/kg/injection, schedule: Q01DX009 (ip), vehicle: saline with Tween-80, higher = longer survival) is reported as 104 % of control and the T/C (endpoint: median survival time, dose: 50.0 mg/kg/injection, schedule: Q01DX009 (ip), vehicle: saline with Tween-80, higher = longer survival) is reported as 89 % of control. The T/C (endpoint: median survival time, dose: 100.0 mg/kg/injection, schedule: Q01DX009 (ip), vehicle: saline with Tween-80, higher = longer survival) was 95 % of control and the T/C (endpoint: median survival time, dose: 200.0 mg/kg/injection, schedule: Q01DX009 (ip), vehicle: saline with Tween-80, higher = longer survival) was 98 % of control.
For `CC(C)=CC(=O)OCC[N+](C)(C)C`, the T/C (endpoint: median survival time, dose: 1.56 mg/kg/injection, schedule: Q01DX009 (ip), vehicle: saline, higher = longer survival) was 96 % of control, the T/C (endpoint: median survival time, dose: 3.12 mg/kg/injection, schedule: Q01DX009 (ip), vehicle: saline, higher = longer survival) was 103 % of control and the T/C (endpoint: median survival time, dose: 12.5 mg/kg/injection, schedule: Q01DX009 (ip), vehicle: saline, higher = longer survival) was 103 % of control. The T/C (endpoint: median survival time, dose: 25.0 mg/kg/injection, schedule: Q01DX009 (ip), vehicle: saline, higher = longer survival) was 113 % of control.
For `O=C(Nc1ccc(C2=NCCN2)cc1)c1ccc(C(=O)Nc2ccc(C3=NCCN3)cc2)c([N+](=O)[O-])c1`, the T/C (endpoint: mean tumor weight, dose: 4.0 mg/kg/injection, schedule: Q01DX011 (ip), vehicle: saline, higher = larger tumour) was 122 % of control, the T/C (endpoint: mean tumor weight, dose: 8.0 mg/kg/injection, schedule: Q01DX011 (ip), vehicle: saline, higher = larger tumour) was 85 % of control and the T/C (endpoint: mean tumor weight, dose: 16.0 mg/kg/injection, schedule: Q01DX011 (ip), vehicle: saline, higher = larger tumour) was 26 % of control.
With `Cc1ccc(S(=O)(=O)[O][Pb]([CH3])([CH3])[CH3])cc1` the T/C (endpoint: median survival time, dose: 0.18 mg/kg/injection, schedule: Q01DX009 (ip), vehicle: saline, higher = longer survival) was 98 % of control and 122 % of control, the T/C (endpoint: median survival time, dose: 0.37 mg/kg/injection, schedule: Q01DX009 (ip), vehicle: saline, higher = longer survival) was 108 % of control and the T/C (endpoint: median survival time, dose: 0.75 mg/kg/injection, schedule: Q01DX009 (ip), vehicle: saline, higher = longer survival) was 116 % of control. For the same molecule, the T/C (endpoint: median survival time, dose: 1.5 mg/kg/injection, schedule: Q01DX009 (ip), vehicle: saline, higher = longer survival) was 109 % of control.
With `CCCCN(C)N=Nc1ccc(CCC(=O)OCC)cc1` the T/C (endpoint: median tumor weight (est.), dose: 72.0 mg/kg/injection, schedule: Q01DX009 (ip), vehicle: saline with Tween-80, higher = larger tumour) was 107 % of control, the T/C (endpoint: median tumor weight (est.), dose: 145.0 mg/kg/injection, schedule: Q01DX009 (ip), vehicle: saline with Tween-80, higher = larger tumour) was 95 % of control and the T/C (endpoint: median tumor weight (est.), dose: 290.0 mg/kg/injection, schedule: Q01DX009 (ip), vehicle: saline with Tween-80, higher = larger tumour) was 61 % of control.
With `CN1CCCC1` the T/C (endpoint: mean tumor weight, dose: 44.0 mg/kg/injection, schedule: Q01DX011 (ip), vehicle: carboxymethylcellulose (CMC), higher = larger tumour) was 52 % of control, the T/C (endpoint: mean tumor weight, dose: 66.0 mg/kg/injection, schedule: Q01DX011 (ip), vehicle: carboxymethylcellulose (CMC), higher = larger tumour) was 58 % of control and the T/C [1] was 69 % of control. For the same molecule, the T/C (endpoint: mean tumor weight, dose: 150.0 mg/kg/injection, schedule: Q01DX011 (ip), vehicle: carboxymethylcellulose (CMC), higher = larger tumour) was 109 % of control.
With `CCCNc1ncnc2c1cnn2C` the T/C (endpoint: mean tumor weight, dose: 3.12 mg/kg/injection, schedule: Q01DX011 (ip), vehicle: saline, higher = larger tumour) was 95 % of control, the T/C (endpoint: mean tumor weight, dose: 6.25 mg/kg/injection, schedule: Q01DX011 (ip), vehicle: saline, higher = larger tumour) was 89 % of control and the T/C (endpoint: mean tumor weight, dose: 12.5 mg/kg/injection, schedule: Q01DX011 (ip), vehicle: saline, higher = larger tumour) was 65 % of control. For the same molecule, the T/C (endpoint: mean tumor weight, dose: 25.0 mg/kg/injection, schedule: Q01DX011 (ip), vehicle: saline, higher = larger tumour) was 28 % of control.
With `COc1cc(C(=O)OC2CC34CCNC35CC(OC5(OC)C2O)c2cc3c(cc24)OCO3)ccc1O` (centres undefined) the T/C (endpoint: mean tumor weight, dose: 0.25 mg/kg/injection, schedule: Q01DX011 (ip), vehicle: carboxymethylcellulose (CMC), higher = larger tumour) was 41 % of control, the T/C (endpoint: mean tumor weight, dose: 0.5 mg/kg/injection, schedule: Q01DX011 (ip), vehicle: carboxymethylcellulose (CMC), higher = larger tumour) was 50 % of control and the T/C (endpoint: mean tumor weight, dose: 1.0 mg/kg/injection, schedule: Q01DX011 (ip), vehicle: carboxymethylcellulose (CMC), higher = larger tumour) was 87 % of control.
With `Oc1ccc2ccccc2c1N=Nc1ccccc1` the T/C (endpoint: mean tumor weight, dose: 25.0 mg/kg/injection, schedule: Q01DX011 (ip), vehicle: carboxymethylcellulose (CMC), higher = larger tumour) was 78 % of control, the T/C (endpoint: mean tumor weight, dose: 50.0 mg/kg/injection, schedule: Q01DX011 (ip), vehicle: carboxymethylcellulose (CMC), higher = larger tumour) was 75 % of control and the T/C [1] was 84 % of control. The T/C (endpoint: mean tumor weight, dose: 200.0 mg/kg/injection, schedule: Q01DX011 (ip), vehicle: carboxymethylcellulose (CMC), higher = larger tumour) was 43 % of control.

From PubChem BioAssay AID270 (DTP/NCI, 2004)
